One assay addresses IRAK4 (Homo sapiens (Human), UniProt Q9NWZ3). The assay can be described thus: IRAK4 enzymatic assay (ADP-Glo luminescence). Type of assay: biochemical. Particulars: human purified recombinant His-TEV-IRAK4 (1-460), ATP 2 μM, STK1-biotin peptide 300 nM. On the procedure: IRAK4 is a human purified recombinant enzyme (His-TEV-IRAK4 (1-460)).
In this assay, IRAK4 hydrolyses ATP, autophosphorylates and phosphorylates a Serine/Threonine generic peptidic substrate (STK: 61ST1BLC from CisBio International). Measurement of IRAK-4 inhibition is performed in 384-well format based on a luminescence assay (ADP-Glo™ Kinase Assay from Promega). Purified human recombinant IRAK4 (0.3 μg/ml) and serial diluted compounds in DMSO (range of concentration from 10 μM to 0.5 nM) or controls (1% DMSO) are incubated for 15 minutes at RT in assay buffer containing 50 mM Hepes pH 7.0, Fatty acid-free BSA 0.1%, Dithiothreitol (DTT) 2 mM, MgCl2 10 mM, EGTA 0.5 mM, Triton X-100 0.01%, MnCl2 5 mM. The kinase reaction is then initiated by the addition of ATP (2 μM) and the peptidic substrate STK1-biotin peptide (300 nM). After 2 hours of incubation at RT, the reaction is stopped and the unconsumed ATP depleted by the addition of ADP-Glo™ Reagent according to supplier instructions. After 40 minutes of incubation at RT, the Kinase Detection Reagent is then added to the assay plate according to supplier instructions. After 20 minutes of incubation at RT, the luminescence signal is measured with a plate-reading luminometer (PerkinElmer Envision or equivalent reader).
(ADP-Glo first removes unused ATP, then detects ADP through luciferase.)

Another assay deals with IRAK1 (Homo sapiens (Human), UniProt P51617). The assay can be described thus: IRAK1 enzymatic assay (ADP-Glo luminescence). The format is biochemical. On the procedure: In this assay, IRAK1 hydrolyses ATP and autophosphorylates. Measurement of IRAK-1 inhibition is performed in 384-well format based on luminescence assay (ADP-Glo™ Kinase Assay from Promega). Purified human recombinant IRAK1 ([…]) and serial diluted compounds in DMSO (range of concentration from 10 μM to 0.5 nM) or controls (1% DMSO) are incubated for 15 minutes at RT in assay buffer containing 50 mM Hepes pH 7.0, Fatty acid-free BSA 0.1%, Dithiothreitol (DTT) 2 mM, MgCl2 10 mM, EGTA 0.5 mM, Triton X-100 0.01%. The kinase reaction is then initiated by the addition of ATP at a concentration of 1μM. After 2 hours of incubation at RT, the reaction is stopped and the unconsumed ATP depleted by the addition of ADP-Glo™ Reagent according to supplier instructions. After 40 minutes of incubation at RT, the Kinase Detection Reagent is then added to the assay plate according to supplier instructions. After 20 minutes of incubation at RT, the luminescence signal is measured with a luminometer (PerkinElmer Envision or equivalent reader).
Chain of IRAK1 (P51617 194-712): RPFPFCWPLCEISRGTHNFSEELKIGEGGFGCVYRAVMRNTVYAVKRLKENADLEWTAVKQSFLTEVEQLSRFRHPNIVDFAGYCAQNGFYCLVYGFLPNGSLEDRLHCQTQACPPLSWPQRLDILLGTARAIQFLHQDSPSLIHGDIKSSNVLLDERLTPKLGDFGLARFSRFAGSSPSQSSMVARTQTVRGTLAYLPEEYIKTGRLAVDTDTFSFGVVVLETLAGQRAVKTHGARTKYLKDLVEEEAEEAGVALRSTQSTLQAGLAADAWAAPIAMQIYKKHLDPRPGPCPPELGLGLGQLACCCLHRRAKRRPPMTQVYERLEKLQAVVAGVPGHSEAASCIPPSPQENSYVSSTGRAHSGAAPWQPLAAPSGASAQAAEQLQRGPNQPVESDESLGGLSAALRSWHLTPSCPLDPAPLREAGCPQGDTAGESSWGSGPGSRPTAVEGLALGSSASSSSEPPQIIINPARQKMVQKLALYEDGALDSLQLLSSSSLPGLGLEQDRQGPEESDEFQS

Where [1] appears, read: human purified recombinant His-TEV-IRAK1 (194-712), ATP 1 μM, read-out: IRAK1 IC50.

Read-outs that look alike come from different tables or passages of the source. Bounds are passed on as bounds.

Chain of IRAK4 (Q9NWZ3 whole entry): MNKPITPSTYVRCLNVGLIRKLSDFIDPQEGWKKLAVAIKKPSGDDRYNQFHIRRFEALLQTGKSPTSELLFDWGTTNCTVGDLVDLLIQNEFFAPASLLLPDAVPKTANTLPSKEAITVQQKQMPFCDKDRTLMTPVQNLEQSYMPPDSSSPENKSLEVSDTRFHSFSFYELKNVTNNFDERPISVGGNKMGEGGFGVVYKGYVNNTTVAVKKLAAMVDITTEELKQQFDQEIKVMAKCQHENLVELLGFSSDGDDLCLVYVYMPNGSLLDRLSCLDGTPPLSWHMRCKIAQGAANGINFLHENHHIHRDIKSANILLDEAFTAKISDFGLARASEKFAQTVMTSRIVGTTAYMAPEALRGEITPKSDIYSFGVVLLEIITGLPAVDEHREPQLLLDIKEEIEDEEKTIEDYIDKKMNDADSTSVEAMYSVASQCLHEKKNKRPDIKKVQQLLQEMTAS

Take “9,10-dihydroxy-17-methyl-4,5,13,16,17,20,26-heptaazatetracyclo[20.3.1.1^2,^5.0^1^5,^1^9]heptacosa-1(25),2(27),3,15,18,22(26),23-heptaene-14,21-dione [Compound 36]”: the IC50 on IRAK4 is < 100 nM.

Consider “15-methyl-4,5,11,14,15,18,24-heptaazatetracyclo[18.3.1.1^2,^5.0^13,^1^7]pentacosa-1(23),2(25),3,13,16,20(24),21-heptaene-12,19-dione [Compound 2]”, for which, on IRAK4, the IC50 was in the range of 100 to 1000 nM. Same read-out and setting: for “17-methyl-4,5,13,16,17,20,26-heptaazatetracyclo[20.3.1.1^2,^5.0^1^5,^1^9]heptacosa-1(25),2(27),3,15,18,22(26),23-heptaene-14,21-dione [Compound 35]” the value was < 100 nM. As for `Cn1cc2c(n1)C(=O)NCCCCCCn1cc(cn1)-c1cccc(c1)C(=O)N2` [Compound 1, 16-methyl-4,5,12,15,16,19-hexaazatetracyclo[19.3.1.1^2,^5.0^1^4,^1^8]hexacosa-1(24),2(26),3,14,17,21(25),22-heptaene-13,20-dione], the concentration for half-maximal inhibition (IC50) against IRAK1 was 100 to 1000 nM; on IRAK4, < 100 nM. In the same order, the values of `Cn1cc2c(n1)C(=O)NCCCCCCn1cc(cn1)-c1cccc(n1)C(=O)N2` [Compound 3, 16-methyl-4,5,12,15,16,19,25-heptaazatetracyclo[19.3.1.1^2,^5.0^1^4,^1^8]hexacosa-1(24),2(26),3,14,17,21(25),22-heptaene-13,20-dione] are 100 to 1000 nM and < 100 nM. Turning to `Cn1cc2c(n1)C(=O)NCCCCn1cc(cn1)-c1cccc(n1)C(=O)N2` [Compound 4, 4-methyl-4,5,10,13,14, 17,23-heptaazatetracyclo[17.3.1.1^2,^5.0^12,^1^6]tetracosa-1(22),2(24),3,12,15,19(23),20-heptaene-11,18-dione], the IC50 at IRAK1 and at IRAK4 was 1000 to 5000 nM throughout. `CN1CCNC(=O)c2nn(C)cc2NC(=O)c2cccc(n2)-c2cnn(c2)CCOC1=O` [Compound 5, 10,17-dimethyl-8-oxa-4,5,10,13,16,17,20,26-octaazatetracyclo[20.3.1.1^2,^5.0^1^5,^1^9]heptacosa-1(25),2(27),3,15,18,22(26),23-heptaene-9,14,21-trione]: the IC50 on IRAK1 (setting [1]) and on IRAK4 was < 100 nM throughout. Take `O=C1Nc2cn(C3CCOCC3)nc2C(=O)NCCCCCn2cc(cn2)-c2cccc1c2` [Compound 6, 15-(oxan-4-yl)-4,5,11,14,15,18-hexaazatetracyclo[18.3.1.1^2,^5.0^13,^1^7]pentacosa-1(23),2(25),3,13,16,20(24),21-heptaene-12,19-dione]: the IC50 on IRAK1 (setting [1]) and at IRAK4 was > 5000 nM in each case.

As to `Cn1cc2c(n1)C(=O)NCC1CN(CCO1)CCn1cc(cn1)-c1cccc(n1)C(=O)N2` (stereo not drawn) [Compound 7, 18-methyl-11-oxa-4,5,8,14,17,18,21,27-octaazapentacyclo[21.3.1.1^2,^5.1^8,^12.0^1^6,^2^0]nonacosa-1 (26),2(29),3,16,19,23(27),24-heptaene-15,22-dione], the IC50 at IRAK1 is 1000 to 5000 nM; on IRAK4 it was < 100 nM.

Consider `Cn1cc2c(n1)C(=O)NCC1CN(CCO1)C(=O)OCCn1cc(cn1)-c1cccc(n1)C(=O)N2` (stereo not drawn) [Compound 8, 20-methyl-8,13-dioxa-4,5,10,16,19,20,23,29-octaazapentacyclo[23.3.1.1^2,^5.1^1^0,^1^4.0^1^8,^22]hentriaconta-1(28),2(31),3,18,21,25(29),26-heptaene-9,17,24-trione], for which the IC50 is > 5000 nM on IRAK1 (setting [1]) and 100 to 1000 nM on IRAK4.

`Cn1cc2c(n1)C(=O)NCC1CCN(CCn3cc(cn3)-c3cccc(n3)C(=O)N2)C1` (stereo not drawn) [Compound 9, 17-methyl-4,5,8,13,16,17,20,26-octaazapentacyclo[20.3.1.1^2,^5.1^8,^11.0^1^5,^1^9]octacosa-1(25),2(28),3,15,18,22(26),23-heptaene-14,21-dione]: the figures for the IC50 against IRAK1 and on IRAK4 were 1000 to 5000 nM and < 100 nM, respectively. The matching figures for `CN1CCNC(=O)c2nn(C)cc2NC(=O)c2cccc(n2)-c2cnn(c2)CC1` [Compound 10, 8,15-dimethyl-4,5,8,11,14,15,18,24-octaazatetracyclo[18.3.1.1^2,^5.0^13,^1^7]pentacosa-1(23),2(25),3,13,16,20(24),21-heptaene-12,19-dione]: 1000 to 5000 nM and 100 to 1000 nM.

Turning to `CN1CCCNC(=O)c2nn(C)cc2NC(=O)c2cccc(n2)-c2cnn(c2)CC1` [Compound 11, 8,16-dimethyl-4,5,8,12,15,16,19,25-octaazatetracyclo[19.3.1.1^2,^5.0^1^4,^1^8]hexacosa-1(24),2(26),3,14,17,21(25),22-heptaene-13,20-dione], the IC50 against IRAK1 was 1000 to 5000 nM; on IRAK4 it was < 100 nM.

On to `O=C1Nc2cn(C3CCOCC3)nc2C(=O)NCCCCCCn2cc(cn2)-c2cccc1n2` [Compound 12, 16-(oxan-4-yl)-4,5,12,15,16,19,25-heptaazatetracyclo[19.3.1.1^2,^5.0^1^4,^1^8]hexacosa-1(24),2(26),3,14,17,21 (25),22-heptaene-13,20-dione], for which the IC50 at IRAK1 was 100 to 1000 nM; on IRAK4, < 100 nM. In the same order, the values of `O=C1Nc2cn(C3CCOCC3)nc2C(=O)NCCSCCCn2cc(cn2)-c2cccc1n2` [Compound 13, 6-(oxan-4-yl)-9-thia-4,5,12,15,16,19,25-heptaazatetracyclo[19.3.1.1^2,^5.0^1^4,^1^8]hexacosa-1(24),2(26),3,14,17,21(25),22-heptaene-13,20-dione] are 100 to 1000 nM and < 100 nM. The matching figures for `O=C1Nc2cn(C3CCOCC3)nc2C(=O)NCC[S+]([O-])CCCn2cc(cn2)-c2cccc1n2` (stereo not drawn) [Compound 14, 16-(oxan-4-yl)-9λ^4-thia-4,5,12,15,16,19,25-heptaazatetracyclo[19.3.1.1^2,^5.0^1^4,^1^8]hexacosa-1(24),2(26),3,14,17,21(25),22-heptaene-9,13,20-trione]: 100 to 1000 nM and < 100 nM. The matching figures for `O=C1Nc2cn(C3CCOCC3)nc2C(=O)NCCS(=O)(=O)CCCn2cc(cn2)-c2cccc1n2` [Compound 15, 16-(oxan-4-yl)-9λ^6-thia-4,5,12,15,16,19,25-heptaazatetracyclo[19.3.1.1^2,^5.0^1^4,^1^8]hexacosa-1(24),2(26),3,14,17,21(25),22-heptaene-9,9,13,20-tetrone]: 100 to 1000 nM and < 100 nM. For the molecule `O=C1Nc2cn(C3CCNCC3)nc2C(=O)NCCCCCCn2cc(cn2)-c2cccc1n2` [Compound 16, 16-(piperidin-4-yl)-4,5,12,15,16,19,25-heptaazatetracyclo[19.3.1.1^2,^5.0^1^4,^1^8]hexacosa-1 (24),2(26),3,14,17,21(25),22-heptaene-13,20-dione], the values for the IC50 against IRAK1 and on IRAK4 were 100 to 1000 nM and < 100 nM, respectively.

On to `CS(=O)(=O)N1CCC(n2cc3c(n2)C(=O)NCCCCCCn2cc(cn2)-c2cccc(n2)C(=O)N3)CC1` [Compound 17, 6-(1-methanesulfonylpiperidin-4-yl)-4,5,12,15,16,19,25-heptaazatetracyclo[19.3.1.1^2,^5.0^1^4,^1^8]hexacosa-1(24),2(26),3,14,17,21(25),22-heptaene-13,20-dione], for which the IC50 against IRAK1 is 100 to 1000 nM; on IRAK4, < 100 nM. As for “(9E)-17-methyl-4,5,13,16, 17,20,26-heptaazatetracyclo[20.3.1.1^2,^5.0^1^5,^1^9]heptacosa-1(25),2(27),3,9,15,18,22(26),23-octaene-14,21-dione [Compound 34]”, the IC50 at IRAK4 was < 100 nM.

For orientation: IC50 means the concentration that inhibits the measured activity by half.

These data come from patent US9815836B2, “Macrocyclic compounds as IRAK1/4 inhibitors and uses thereof” (Merck Patent GmbH, priority 2015, dated 2017).
